From US8399489B2, “Antibacterial piperdine derivatives” (Astrazeneca AB, priority 2005, dated 2013) come the findings set out here.

Common to all, as to assay type: cell-based
In one test the test system is HIN446. As to the kind of experiment: Bacterial susceptibility testing in liquid media (MIC), HIN446. The conditions noted are these: strain HIN446; lowest concentration reducing growth by 80% or more; 37 degrees C., 24 hrs. Here is the method: (§1) Compounds were tested for antimicrobial activity by susceptibility testing in liquid media. Compounds were dissolved in dimethylsulfoxide and tested in 10 doubling dilutions in the susceptibility assays. The organisms used in the assay were grown overnight on suitable agar media and then suspended in a liquid medium appropriate for the growth of the organism. The suspension was a 0.5 McFarland and a further 1 in 10 dilution was made into the same liquid medium to prepare the final organism suspension in 100 μL. Plates were incubated under appropriate conditions at 37 degrees C. for 24 hrs prior to reading. The Minimum Inhibitory Concentration was determined as the lowest drug concentration able to reduce growth by 80% or more.

For the next test, the system named is MCA445. As to the kind of experiment: Bacterial susceptibility testing in liquid media (MIC), MCA445. The note with it: strain MCA445; lowest concentration reducing growth by 80% or more; 37 degrees C., 24 hrs. Here is the method: as §1
Another test deals with SPN548. As to the kind of experiment: Bacterial susceptibility testing in liquid media (MIC), SPN548. The conditions noted are these: strain SPN548; lowest concentration reducing growth by 80% or more; 37 degrees C., 24 hrs. How it is done: as §1
In the next test the test system is SAU516. As to the kind of experiment: Bacterial susceptibility testing in liquid media (MIC), SAU516. The note with it: strain SAU516; lowest concentration reducing growth by 80% or more; 37 degrees C., 24 hrs. How it is done:
as §1

The subject of a further test is EFM073. As to the kind of experiment: Bacterial susceptibility testing in liquid media (MIC), EFM073. The conditions noted are these: strain EFM073; lowest concentration reducing growth by 80% or more; 37 degrees C., 24 hrs. Here is the method: as §1
The subject of another test is Streptococcus pneumoniae. As to the kind of experiment: Bacterial susceptibility testing in liquid media (MIC), Streptococcus pneumoniae. The note with it: lowest concentration reducing growth by 80% or more, 37 degrees C., 24 hrs, read-out: MIC against Streptococcus pneumoniae. Here is the method: as §1

In brackets after ≈: the same amount, converted by molar mass.

Take `CO[C@H]1CN(c2nc3cccc(C(=O)O)c3s2)CC[C@H]1NC(=O)c1[nH]c(C)c(Cl)c1Cl` [Example 294]: in the test with HIN446, the MIC HIN446 amounted to 0.031 µg/mL (≈ 0.0641 µM). Besides, the MIC MCA445 in the test with MCA445 is 0.001 µg/mL (≈ 0.00207 µM). This compound yielded an MIC SPN548 against SPN548 of 0.0039 µg/mL (≈ 0.00807 µM). Moreover, the MIC SAU516 against SAU516 was 0.031 µg/mL (≈ 0.0641 µM). Further, the MIC EFM073 against EFM073 stood at 0.016 µg/mL (≈ 0.0331 µM).
Consider `Cc1[nH]c(C(=O)N[C@@H]2CCN(c3cc(C(=O)O)ccn3)C[C@@H]2F)c(Cl)c1Cl` [Example 345, 2-((3S,4R)-4-{[(3,4-dichloro-5-methyl-1H-pyrrol-2-yl)carbonyl]amino}-3-fluoropiperidin-1-yl)isonicotinic acid], for which the MIC HIN446 with HIN446 turned out to be 0.25 µg/mL (≈ 0.602 µM). This compound also returned an MIC MCA445 with MCA445 of 0.031 µg/mL (≈ 0.0747 µM). In addition, in the test on SPN548, the MIC SPN548 is 0.03 µg/mL (≈ 0.0722 µM). Besides, the MIC SAU516 against SAU516 was 0.5 µg/mL (≈ 1.2 µM). Besides, the MIC EFM073 in the test with EFM073 worked out at 0.13 µg/mL (≈ 0.313 µM).
For `CO[C@@H]1CN(c2cc(C(=O)O)nc3ccccc23)CC[C@@H]1NC(=O)c1cc(Cl)c(C)[nH]1` (racemic) [Example 60, Cis(±)4-(4-{[(4-chloro-5-methyl-1H-pyrrol-2-yl)carbonyl]amino}-3-methoxypiperidin-1-yl)quinoline-2-carboxylic acid] the same measures were 4 µg/mL (≈ 9.03 µM), 0.25 µg/mL (≈ 0.564 µM), 2 µg/mL (≈ 4.52 µM), 2 µg/mL (≈ 4.52 µM) and 8 µg/mL (≈ 18.1 µM).
For the compound `CO[C@@H]1CN(c2cc(C(=O)O)ncc2Cl)CC[C@@H]1NC(=O)c1[nH]c(C)c(Cl)c1Cl` (racemic) [Example 315, Cis(±)-5-chloro-4-(4-{[(3,4-dichloro-5-methyl-1H-pyrrol-2-yl)carbonyl]amino}-3-methoxypiperidin-1-yl)pyridine-2-carboxylic acid], the MIC HIN446 in the test with HIN446 turned out to be 2 µg/mL (≈ 4.33 µM). For the same compound, the MIC MCA445 with MCA445 came out at 0.13 µg/mL (≈ 0.282 µM). In the test on SPN548, this compound yielded an MIC SPN548 of 0.5 µg/mL (≈ 1.08 µM). The MIC SAU516 in the test with SAU516 was 4 µg/mL (≈ 8.66 µM). Moreover, the MIC EFM073 in the test with EFM073 is 4 µg/mL (≈ 8.66 µM).
Broadly, the MIC is the least concentration at which growth counts as inhibited. As to `CO[C@@H]1CN(c2cc(C(=O)O)nc(Cl)n2)CC[C@@H]1NC(=O)c1[nH]c(C)c(Cl)c1Cl` (racemic) [Example 48, Cis(±)2-Chloro-6-(4-{[(3,4-dichloro-5-methyl-1H-pyrrol-2-yl)carbonyl]amino}-3-methoxypiperidin-1-yl)pyrimidine-4-carboxylic acid], in the test on Streptococcus pneumoniae, the MIC is 0.13 µg/mL (≈ 0.281 µM).
